Experimental findings from patent publication US6303612A, “Derivatives of hydroxyphenylsulfanylbenzoic and hydroxphenylsulfanylarylacetic acids” (Leciva, A.S., priority 1998, dated 2001) are described below.

In brackets after ≈: the same amount, converted by molar mass. Where two headings read alike, the source gives them in different places.

Test [1] has as its system bronchospasm induced by LTD4. As to the kind of experiment: Inhibition of bronchospasm induced by LTD4. Type of test: in vivo. The following applies: for Inhibition of bronchospasm induced by LTD4, % of inhibition: dose 100 mg/kg. The procedure: (§1) Inhibition of Allergic Bronchospasm Induced by […] (Compound 48/80 or Ovalbumin, Respectively)
(§2) The modified method of Kreutner W. et al (Krelutner W. et al.: Agents Actions 28, 253 (1989)) was used. Bronchoconstrictioin was induced by intravenous injection of 1 μg/kg LTD4 (3 mg/kg of compound […] or 0.35 mg/kg of ovalbumin, respectively). In the case of oval-bumin, the animals were senzitized by intraperitoneal injection of ovalbumin (100 mg/kg) 14 days before induction. The compounds tested were applied 5 min before the administration of the inductor; the vehiculum used for the application of compound tested was administered to the control group of animals. The tracheal pressure was determined in the intervals of 2, 4 and 10 minutes after induction. The effect was expressed in percentage inhibition of bronchospasm relative to the untreated control.

Test [2] has as its system bronchospasm induced by ovalbumin. As to the kind of experiment: Inhibition of bronchospasm induced by ovalbumin. It is filed as in vivo. The settings on record: for Inhibition of bronchospasm induced by ovalbumin, % of inhibition: dose 100 mg/kg. The procedure:
as §1, §2

The test system of test [3] is Wistar-Han rats. As to the kind of experiment: Inhibition of carrageenan edema. Type of test: in vivo. The settings on record: Rattus norvegicus, dose 100 mg/kg; read-out: CE: inhibition of carrageenan-induced edema, % of inh. On the technique in general: The carrageenan paw model is a standard test of acute inflammation.
For test [4], the system named is male mice. As to the kind of experiment: Inhibition of arachidonic acid-induced ear inflammation in mice. Type of test: in vivo. The following applies: Mus musculus, po, 1 h. Put shortly:
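Compounds given orally 1 h before ear inflammation was induced in male mice with 20 µl arachidonic acid in acetone (100 mg/ml). Animals killed 1 h after induction. Ear hyperemia and ear-lobe weight assessed against the vehicle-treated contralateral ear.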

The subject of test [5] is LTB4 production in rat polymorphonuclear cells. As to the kind of experiment: Ex vivo inhibition of LTB4 production (LTB4 biosynthesis). It is filed as cell-based. The settings on record: for Inh. of LTB4 biosynth., %: at 30 μg (%/μg); for IC50: Rattus norvegicus, read-out: Inh. of LTB4 biosynth., IC50.
Test [6] deals with T1, LTD4 receptor (Cavia porcellus, UniProt Q2NNR5).
T1 construct: The membrane fraction was prepared from male guinea-pig lungs; from tissue; host or cells: male guinea-pig lung membranes
T1 sequence (Q2NNR5 1-340): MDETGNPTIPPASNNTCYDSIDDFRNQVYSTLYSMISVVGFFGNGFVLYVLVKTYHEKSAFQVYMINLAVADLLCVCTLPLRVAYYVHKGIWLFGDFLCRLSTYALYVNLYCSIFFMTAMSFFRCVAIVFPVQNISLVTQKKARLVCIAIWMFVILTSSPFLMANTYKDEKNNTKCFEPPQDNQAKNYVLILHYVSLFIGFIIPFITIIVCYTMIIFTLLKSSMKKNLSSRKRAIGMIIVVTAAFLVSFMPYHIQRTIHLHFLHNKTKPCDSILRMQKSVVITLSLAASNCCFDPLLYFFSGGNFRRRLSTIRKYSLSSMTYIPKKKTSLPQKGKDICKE
As to the kind of experiment: LTD4 receptor binding study. The settings on record: 3H-LTD4, guinea-pig lung membranes; for IC50: read-out: Inh. of LTD4 rec. binding, IC50; for inhibition at 100 µM: read-out: Inh. of LTD4 rec. binding, %. Put shortly:
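Guinea-pig lung membranes (male animals) were incubated with 0.4 nM ³H-LTD4 for 60 min at 25 °C. Nonspecific binding was defined with 0.1 μM LTD4. Bound radioactivity was measured after filtration and washing.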

Test [7] relates to rats. As to the kind of experiment: Inhibition of carrageenan-induced pleuritis in rats. The settings on record: Rattus norvegicus, po, 4 h, dose 100 mg/kg, oral, values with mark n: p > 0.05. Type of test: in vivo. Put shortly:
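Rats given test drug as single oral dose 1 h before intrapleural 0.5% carrageenan (1 ml) under light ether anaesthesia. Pleural exudate collected 4 h later; volume, cellularity and total cell count measured.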

For test [8], the system named is peroxidation of lipids from the hepatic cells membranes. As to the kind of experiment: Antioxidant effect in vitro. It is filed as biochemical. The settings on record: at 100 μg. The source says:
Antioxidant Effect in vitro
The end-product, malonic dialdehyde, was transformed to coloured complex with thiobarbituric acid and determined spectrophotometrically. The antioxidant effect was expressed in % of peroxidation inhibition in the presence of the compound tested in comparison to a control sample.

Test [9] concerns the target LTB4 receptor (Cavia porcellus, UniProt H0VYV8). As to the kind of experiment: LTB4 receptor binding study. The following applies: 3H-LTB4, guinea-pig spleen membranes; for IC50: read-out: Inh. of LTB4 rec. binding, IC50; for inhibition at 20 µM: read-out: Inh. of LTB4 rec. binding, %. Put shortly:
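Male guinea-pig spleen membranes (2 mg) incubated with 0.3 nM ^3H-LTB4 for 30 min at 25 °C; nonspecific binding defined with 0.1 μM LTB4. Bound ligand collected by GF/C filtration, counted by liquid scintillation to give specific binding.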

Where [10] appears, read: values with mark n: p > 0.05, read-out: Ear edema, D: edema of ear lobe, % of inh.
[11] abbreviates: values with mark n: p > 0.05, read-out: Ear edema, E: hyperemia of ear lobe, % of inh.
Setting [12] is: read-out: Experimental pleuritis, A: volume of exudate in pleural cavity, % of inh.
The mark [13] stands for this setting: read-out: Experimental pleuritis, B: number of cells, % of inh.
[14] abbreviates: read-out: Experimental pleuritis, C: cellularity in a volume unit, % of inh.

LTB4 receptor, sequence (H0VYV8 1-348): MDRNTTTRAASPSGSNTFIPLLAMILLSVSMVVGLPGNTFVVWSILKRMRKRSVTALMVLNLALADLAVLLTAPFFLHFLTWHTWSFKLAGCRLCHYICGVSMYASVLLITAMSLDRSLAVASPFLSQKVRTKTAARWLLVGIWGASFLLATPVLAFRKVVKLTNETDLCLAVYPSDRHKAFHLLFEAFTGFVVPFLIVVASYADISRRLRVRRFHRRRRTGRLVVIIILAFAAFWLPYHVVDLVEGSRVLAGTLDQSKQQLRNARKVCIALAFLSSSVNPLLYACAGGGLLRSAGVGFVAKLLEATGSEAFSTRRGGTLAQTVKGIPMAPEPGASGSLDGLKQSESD

Take `CON1CC/C(=C\c2cc(C(C)(C)C)c(O)c(C(C)(C)C)c2)C1=O` [E 5110, reference compound]: the “Inhibition of bronchospasm induced by LTD4, % of inhibition” value came to 45% in test [1] (2 min), 55% in test [1] (4 min) and 58% in test [1] (10 min). Besides, the results for the “Inhibition of bronchospasm induced by ovalbumin, % of inhibition” value in [2] (2 min), in test [2] (4 min) and in [2] (10 min) were 74%, 71% and 69%, respectively.

The IC50 is the concentration needed to halve the response being measured. Consider `O=C(O)c1ccc(Sc2ccc(OCc3ccc4ccccc4n3)cc2)cc1` [Compound 16], for which the inhibition in vivo at 100 mg/kg came to 25% in test [3]; 69% in test [1] (2 min); 70.8% in test [1] (4 min); 26% in test [7] (setting [12]); 33% in test [7] (setting [13]); 11% in [7] (setting [14]). The figures for the inhibition in vivo at 100 mg/kg in [2] (2 min), in test [2] (4 min) and in test [2] (10 min) were 41%, 45% and 63%, respectively. The inhibition in vivo at 200 mg/kg amounted to 27% in [4] (setting [10]) and 3% in test [4] (setting [11]). Also, the “Inh. of LTB4 biosynth., IC50” value in [5] came to 0.004 µg/mL. Also, the “Inh. of LTB4 biosynth., %” value in test [5] stood at 98%. The IC50 is 0.024 µM in test [6] and 91.6 µM in test [9]. Further, the inhibition at 100 µM in [6] amounted to 100%. Besides, the “Antiox. effect, % of peroxidation inhibition” value in test [8] was found to be 13%. For the same compound, the “Inh. of LTB4 rec. binding, %” value in test [9] (at 20 μM) turned out to be 19%.

Turning to `CCCc1c(OCCCOc2cccc(Sc3ccc(C(=O)O)cc3)c2)ccc(C(C)=O)c1O` [Compound 5, 4-(3-(3-(4-Acetyl-3-hydroxy-2-propylphenoxy)propoxy)phenylsulfanyl)benzoic Acid], the inhibition in vivo at 100 mg/kg in [3] amounted to 14%; in test [1] (4 min), 16%; in test [7] (setting [12]), 10%; in test [7] (setting [13]), 46%; in test [7] (setting [14]), 61%. Moreover, the inhibition in vivo at 200 mg/kg in test [4] (setting [10]) stood at 1%; in test [4] (setting [11]), 0%. Further, the IC50 is 0.05 µg/mL (≈ 0.104 µM) in [5], 15.1 µM in [6] and 9.6 µM in [9]. For the same compound, the “Inh. of LTB4 biosynth., %” value in test [5] is listed as 100%. Further, the inhibition at 100 µM in test [6] came to 97%. Further, in [8], the “Antiox. effect, % of peroxidation inhibition” value was 75%. The inhibition at 20 µM in [9] (at 20 μM) turned out to be 65%.

In the case of `O=C(O)c1ccccc1Sc1ccc(OCc2ccc3ccccc3n2)cc1` [Compound 19, 2-(4-(Quinoline-2-ylmethoxy)phenylsulfanyl)benzoic Acid], the inhibition in vivo at 100 mg/kg in test [3] was 13%; in test [1] (2 min) it was 14%; in test [1] (4 min) it was 33%; in [1] (10 min), 43%; in test [7] (setting [12]) it was 17%; in test [7] (setting [13]), 23%. Also, the figures for the inhibition in vivo at 100 mg/kg in [7] (setting [14]), in test [2] (2 min) and in [2] (4 min) were 6%, 21% and 27.3%, respectively. Besides, the results for the inhibition in vivo at 200 mg/kg in [4] (setting [10]) and in [4] (setting [11]) were 20% and 5%, respectively. The IC50 in test [5] worked out at 0.13 µg/mL (≈ 0.336 µM); in [6], 1.7 µM; in test [9], 70.3 µM. For the same compound, in test [5], the “Inh. of LTB4 biosynth., %” value is 100%. Also, the inhibition at 100 µM in test [6] came out at 100%. The “Antiox. effect, % of peroxidation inhibition” value in test [8] stood at 10%. The inhibition at 20 µM in test [9] (at 20 μM) is 34%.

As for `CC(c1cc2ccccc2s1)N(O)C(N)=O` (stereo not shown) [Zileuton, reference compound], the inhibition in vivo at 100 mg/kg in test [3] came out at 46%; in test [1] (2 min), 10%; in [1] (4 min), 54%; in test [1] (10 min), 75%; in test [7] (setting [12]), 36%; in test [7] (setting [13]), 49%. The inhibition in vivo at 100 mg/kg in [7] (setting [14]) was found to be 20%; in test [2] (2 min) it was 23%; in test [2] (4 min), 28%; in test [2] (10 min), 50%. Besides, the values for the inhibition in vivo at 200 mg/kg in test [4] (setting [10]) and in [4] (setting [11]) were 9% and 13%, respectively. In addition, in [5], the IC50 came to 0.17 µg/mL (≈ 0.719 µM). Besides, the “Inh. of LTB4 biosynth., %” value in test [5] turned out to be 100%. For the same compound, the inhibition at 100 µM in [6] is 7%. Further, the inhibition at 20 µM in [9] (at 20 μM) was determined as 28%.

For `CCCc1c(OCCCCOc2cccc(Sc3ccc(C(=O)O)cc3)c2)ccc(C(C)=O)c1O` [Compound 8, 4-(3-(4-(4-Acetyl-3-hydroxy-2-propylphenoxy)butoxy)phenylsulfanyl)benzoic Acid], the inhibition in vivo at 100 mg/kg stood at 24% in test [3]; 98% in test [1] (4 min); 7% in [7] (setting [12]); 18% in test [7] (setting [13]); 11% in [7] (setting [14]). Also, the inhibition in vivo at 200 mg/kg in [4] (setting [10]) is 1%; in test [4] (setting [11]), 9%. Moreover, the IC50 in test [5] came out at 0.52 µg/mL (≈ 1.05 µM); in test [6] it was 39.3 µM; in test [9], 3.7 µM. In addition, the “Inh. of LTB4 biosynth., %” value in test [5] was 100%. In addition, the inhibition at 100 µM in test [6] came to 69%. The “Antiox. effect, % of peroxidation inhibition” value in test [8] is given as 22%. Moreover, the inhibition at 20 µM in test [9] (at 20 μM) was 100%.

In the case of `CCCc1c(OCCCOc2ccc(Sc3ccc(C(=O)O)cc3)cc2)ccc(C(C)=O)c1O` [Compound 3, 4-(4-(3-(4-Acetyl4-3-hydroxy-2-propylphenoxy)propoxy)phenylsulfanyl)benzoicAcid], the inhibition in vivo at 100 mg/kg was found to be 32% in [3], 2% in [7] (setting [12]), 27% in test [7] (setting [13]) and 28% in test [7] (setting [14]). For the same compound, the inhibition in vivo at 200 mg/kg in [4] (setting [10]) was determined as 8%; in test [4] (setting [11]), 5%. Further, the IC50 came to 0.48 µg/mL (≈ 0.999 µM) in test [5], 19 µM in [6] and 20 µM in test [9]. For the same compound, the “Inh. of LTB4 biosynth., %” value in test [5] is reported as 100%. Moreover, in test [6], the inhibition at 100 µM amounted to 97%. Moreover, in [8], the “Antiox. effect, % of peroxidation inhibition” value is reported as 33%. Moreover, in [9] (at 20 μM), the inhibition at 20 µM was found to be 50%.

`O=C(O)c1ccccc1Sc1ccc(OCc2ccc3cc(Cl)ccc3n2)cc1` [Compound 21]: the inhibition in vivo at 100 mg/kg was found to be 18% in test [3], 15% in test [7] (setting [12]), 12% in test [7] (setting [13]) and 4% in test [7] (setting [14]). Besides, the values for the inhibition in vivo at 200 mg/kg in test [4] (setting [10]) and in [4] (setting [11]) were 7% and 3%, respectively. Besides, the IC50 came out at 0.08 µg/mL (≈ 0.19 µM) in test [5], 1.7 µM in test [6] and 30.1 µM in [9]. For the same compound, the “Inh. of LTB4 biosynth., %” value in [5] is recorded as 100%. Further, the inhibition at 100 µM in test [6] was determined as 86%. Also, the “Antiox. effect, % of peroxidation inhibition” value in test [8] is on record as 0%. In [9] (at 20 μM), the inhibition at 20 µM amounted to 39%.
